In PubChem BioAssay AID248 (DTP/NCI, 2004):
Where “and” joins values, the source holds several entries; their conditions need not be identical. Equal entries are not always repeated. Inconclusive results and toxic doses are left out. Rule as the data show it: active = T/C of 150% or more; inactive = T/C below 125%.

System: L1210 leukemia ip in BDF1 mice, survival T/C
Assay: NCI In Vivo Anticancer Drug Screen. Data for tumor model L1210 Leukemia (intraperitoneal) in B6D2F1 (BDF1) mice
Conditions: endpoint: mean survival time, higher = longer survival
In short: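 In this screen, tumor-bearing mice given compound are compared to those given vehicle, and their survival values are reported as a treated-to-control quotient.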

[1] = dose: 100.0 mg/kg/injection, schedule: Q04DX002 (ip), vehicle: Klucel (hydroxypropylcellulose) (HPC)
[2] = dose: 200.0 mg/kg/injection, schedule: Q04DX002 (ip), vehicle: Klucel (hydroxypropylcellulose) (HPC)
[3] = dose: 50.0 mg/kg/injection, schedule: Q01DX001 (ip), vehicle: saline
[4] = dose: 100.0 mg/kg/injection, schedule: Q01DX001 (ip), vehicle: saline
[5] = dose: 200.0 mg/kg/injection, schedule: Q01DX001 (ip), vehicle: saline
[6] = dose: 100.0 mg/kg/injection, schedule: Q01DX009 (ip), vehicle: saline with Tween-80
[7] = dose: 400.0 mg/kg/injection, schedule: Q01DX001 (ip), vehicle: saline
[8] = dose: 400.0 mg/kg/injection, schedule: Q04DX002 (ip), vehicle: Klucel (hydroxypropylcellulose) (HPC)
[9] = dose: 100.0 mg/kg/injection, schedule: Q04DX003 (ip), vehicle: Klucel (hydroxypropylcellulose) (HPC)
[10] = dose: 200.0 mg/kg/injection, schedule: Q04DX003 (ip), vehicle: Klucel (hydroxypropylcellulose) (HPC)
[11] = dose: 50.0 mg/kg/injection, schedule: Q01DX009 (ip), vehicle: Klucel (hydroxypropylcellulose) (HPC)
[12] = dose: 100.0 mg/kg/injection, schedule: Q01DX009 (ip), vehicle: Klucel (hydroxypropylcellulose) (HPC)
[13] = dose: 200.0 mg/kg/injection, schedule: Q01DX009 (ip), vehicle: Klucel (hydroxypropylcellulose) (HPC)
[14] = dose: 75.0 mg/kg/injection, schedule: Q01DX001 (ip), vehicle: saline
[15] = dose: 150.0 mg/kg/injection, schedule: Q01DX001 (ip), vehicle: saline

Measured: T/C

CCN(CC)Cc1cc(C(=N)N)ccc1O
inactive: dose: 56.0 mg/kg/injection, schedule: Q01DX Z (ip), vehicle: carboxymethylcellulose (CMC) 101 % of control | dose: 83.0 mg/kg/injection, schedule: Q01DX Z (ip), vehicle: carboxymethylcellulose (CMC) 95 % of control | dose: 125.0 mg/kg/injection, schedule: Q01DX Z (ip), vehicle: carboxymethylcellulose (CMC) 98 % of control | dose: 187.5 mg/kg/injection, schedule: Q01DX Z (ip), vehicle: carboxymethylcellulose (CMC) 102 % of control

CC(Cl)(S(=O)c1ccccc1)C1(O)CCCCC1 (stereo unspecified)
inactive: dose: 100.0 mg/kg/injection, schedule: Q03DX002 (ip), vehicle: saline with Tween-80 113 % of control | dose: 200.0 mg/kg/injection, schedule: Q03DX002 (ip), vehicle: saline with Tween-80 102 % of control | dose: 400.0 mg/kg/injection, schedule: Q03DX002 (ip), vehicle: saline with Tween-80 105 % of control

O=C(CS(=O)(=O)C/C(=N\Nc1ccc([N+](=O)[O-])cc1)c1ccccc1)c1ccccc1
inactive: dose: 100.0 mg/kg/injection, schedule: Q04DX003 (ip), vehicle: saline 101 % of control | dose: 200.0 mg/kg/injection, schedule: Q04DX003 (ip), vehicle: saline 113 % of control | dose: 400.0 mg/kg/injection, schedule: Q04DX003 (ip), vehicle: saline 104 % of control

O=S(=O)(Cc1ccccc1)N1CCCCC1
inactive: [1] 99 % of control | [2] 99 % of control

C=CCNCC=C
inactive: [3] 96 % of control | [4] 96 % of control | [5] 98 % of control

OCC1OCOC2COCOC12 (stereo unspecified)
inactive: [6] 94 % of control | dose: 200.0 mg/kg/injection, schedule: Q01DX009 (ip), vehicle: saline with Tween-80 98 % of control | dose: 400.0 mg/kg/injection, schedule: Q01DX009 (ip), vehicle: saline with Tween-80 104 % of control

CCOC(=O)Nc1cc(NCC(O)CN(C)C)c([N+](=O)[O-])c(N)n1 (stereo unspecified)
inactive: dose: 100.0 mg/kg/injection, schedule: Q01DX001 (ip), vehicle: saline with Tween-80 103 % of control | dose: 200.0 mg/kg/injection, schedule: Q01DX001 (ip), vehicle: saline with Tween-80 94 % of control | dose: 400.0 mg/kg/injection, schedule: Q01DX001 (ip), vehicle: saline with Tween-80 101 % of control

Clc1nc2ccccc2s1
inactive: dose: 100.0 mg/kg/injection, schedule: Q01DX009 (ip), vehicle: alcohol 88 % of control | dose: 200.0 mg/kg/injection, schedule: Q01DX009 (ip), vehicle: alcohol 89 % of control

CCCCC(CC)C(=O)N1CCOCC1 (stereo unspecified)
inactive: dose: 100.0 mg/kg/injection, schedule: Q04DX003 (ip), vehicle: saline with Tween-80 120 % of control | dose: 200.0 mg/kg/injection, schedule: Q04DX003 (ip), vehicle: saline with Tween-80 114 % of control | dose: 400.0 mg/kg/injection, schedule: Q04DX003 (ip), vehicle: saline with Tween-80 107 % of control

S=C(NCCN1CCOCC1)Nc1ccccc1
inactive: dose: 50.0 mg/kg/injection, schedule: Q01DX001 (ip), vehicle: other 105 % of control | dose: 100.0 mg/kg/injection, schedule: Q01DX001 (ip), vehicle: other 94 % of control | dose: 200.0 mg/kg/injection, schedule: Q01DX001 (ip), vehicle: other 94 % of control | dose: 400.0 mg/kg/injection, schedule: Q01DX001 (ip), vehicle: other 92 % of control

CCCCCC(/C=N\NC(=O)CCCC(=O)N/N=C/C(=C/c1ccccc1)CCCCC)=C\c1ccccc1
inactive: [3] 89 % of control | [4] 95 % of control | [5] 97 % of control | [7] 89 % of control

FC(F)(F)c1cccc(-n2nncc2-c2ccccc2)c1
inactive: [1] 97 % of control | [2] 101 % of control | [8] 97 % of control

CCN(CCOC(=O)Nc1cc([N+](=O)[O-])ccc1C)c1ccccc1
inactive: [1] 87 % of control | [2] 94 % of control | [8] 90 % of control

CC(C)(O)C(O)(c1ccccc1)c1ccccc1
inactive: [4] 103 % of control | [5] 97 % of control | [7] 95 % of control

Cc1cc(NC(=O)NCc2ccc([N+](=O)[O-])cc2Cl)ccc1S(=O)(=O)F
inactive: [9] 98 % of control | [10] 98 % of control | dose: 400.0 mg/kg/injection, schedule: Q04DX003 (ip), vehicle: Klucel (hydroxypropylcellulose) (HPC) 106 % of control

O=c1nc2n(O)cccc-2c(=O)[nH]1
inactive: [11] 96 % of control | [12] 100 % of control | [9] 96 % of control | [13] 101 % of control | [10] 102 % of control

CC(Br)C(=O)c1cccc2ccccc12 (stereo unspecified)
inactive: dose: 25.0 mg/kg/injection, schedule: Q04DX003 (ip), vehicle: Klucel (hydroxypropylcellulose) (HPC) 90 % of control | dose: 50.0 mg/kg/injection, schedule: Q04DX003 (ip), vehicle: Klucel (hydroxypropylcellulose) (HPC) 90 % of control | [9] 97 % of control and 98 % of control

NC1CC=CCC1c1ccc2c(c1)OCO2 (stereo unspecified)
inactive: [14] 100 % of control | [15] 92 % of control

CC(=O)OC1CC2(O)C3CCC4CC(O)CCC4(C)C3CCC2(C)C1c1ccc(=O)oc1 (stereo unspecified)
inactive: dose: 100.0 mg/kg/injection, schedule: Q01DX001 (sc), vehicle: steriod suspending solution 107 % of control | dose: 200.0 mg/kg/injection, schedule: Q01DX001 (sc), vehicle: steriod suspending solution 101 % of control | dose: 400.0 mg/kg/injection, schedule: Q01DX001 (sc), vehicle: steriod suspending solution 107 % of control

O=C(NCCF)NC1CS(=O)(=O)CS(=O)(=O)C1
inactive: dose: 9.5 mg/kg/injection, schedule: Q01DX001 (ip), vehicle: other 100 % of control | dose: 19.0 mg/kg/injection, schedule: Q01DX001 (ip), vehicle: other 105 % of control | dose: 38.0 mg/kg/injection, schedule: Q01DX001 (ip), vehicle: other 96 % of control

C=C1C(=O)OC2C1C(O)C(OC(=O)/C(C)=C\C)C(C)=C1CC3OC3(C)C12 (stereo unspecified)
inactive: dose: 25.0 mg/kg/injection, schedule: Q01DX001 (ip), vehicle: saline with Tween-80 94 % of control | dose: 50.0 mg/kg/injection, schedule: Q01DX001 (ip), vehicle: saline with Tween-80 105 % of control

CCN(CC)CC(=O)NCC(CCN(C)C)(CCN(C)C)c1cccc2ccccc12
inactive: dose: 25.0 mg/kg/injection, schedule: Q04DX002 (ip), vehicle: saline with Tween-80 115 % of control | dose: 50.0 mg/kg/injection, schedule: Q04DX002 (ip), vehicle: saline with Tween-80 96 % of control | [6] 93 % of control | dose: 100.0 mg/kg/injection, schedule: Q04DX002 (ip), vehicle: saline with Tween-80 107 % of control

CCCC[n+]1cc(C(N)=O)cc2ccccc21
inactive: [14] 96 % of control | [15] 95 % of control

c1ccc(-c2ccc(C3=NC(c4ccccc4)CC3)[nH]2)cc1 (stereo unspecified)
inactive: [11] 90 % of control | [12] 90 % of control | [13] 86 % of control

O=C(Nc1ccccc1)Nc1cc(Cl)ccc1Cl
inactive: dose: 25.0 mg/kg/injection, schedule: Q04DX002 (ip), vehicle: Klucel (hydroxypropylcellulose) (HPC) 107 % of control | dose: 50.0 mg/kg/injection, schedule: Q04DX002 (ip), vehicle: Klucel (hydroxypropylcellulose) (HPC) 90 % of control | [1] 90 % of control
